# “Also recorded” adds a separate entry of the source.
# Key:
# Normal Rabbit Serum = assay: Indirect ELISA of normal rabbit serum/IgG against viral and myelin antigens; format: binding; settings: 10^−2 diluted
# [1] = test system: SFV-infected WT and γδ KO mice; assay: E2 137-151 peptide immunization during SFV disease: serum antibody response (ELISA); format: in vivo
# Text: Optical densities (OD) (3A) and ratios (3B) of Non-immunized/Immunized, WT and KO, of ELISA responses to SFV and to E2 peptide, 137-151 is shown. Samples were collected on days 15, 21, 28 and 35 after intraperitoneal infection of B6 mice with SFV and immunization with E2 137-151. The dilutions for sera were 1:80, Amount of antibody is shown as mean optical density (OD) of sera from three experiments±standard error of the mean (SEM). The background OD is subtracted from each time point.
# (§1) To measure the antibody response of both WT and γδ KO mice against SFV and two of the peptides of the SFV envelope protein, E2, an indirect ELISA was performed. Sera were pooled from 4-6 SFV-infected WT, and 3 KO, mice on days 0, 7, 14, 21 and 35 pi. Briefly, Immunolon 2HB 96 well microtiter plates (VWR, Bridge Port, N.J.) were coated with 1 μg/well of each antigen in 100 μl/well carbonate buffer overnight at room temperature. After washing, the plates were blocked and serum samples were added. […] After washing, biotinylated goat anti-mouse Igs (BD Pharmingen, Torreyana, Calif.), Strepavidin conjugated to Horse Radish Peroxidase (Vector Laboratories, Burlingame, Calif.), and OPD substrate (Sigma, St. Louis, Mo.) were used, as previously described (4, 9). […] Values were considered to be positive when they were >0.3 OD units and exceeded the mean value plus three standard deviations for antibody response on day 0 pi of mice of the same strain.
# WT and KO mice were immunized subcutaneously with E2 137-151 (0.5 mg/injection or 25 mg/kg, based on the average weight of 20 g/mouse) in IFA on the day of SFV-infection. Additional injections of E2 137/IFA were performed on days 5 and 15 for WT and KO mice. Mice are sacrificed on days 15, 21, 35 and 42 pi and sera were tested by ELISA for reactivity with SFV and its peptides. […] This immunization, however, appeared to have suppressed the formation of anti-E2 137-151 antibody in SFV-infected, E2 137-151-immunized WT mice.
# [2] = test system: sera from SFV-infected B6 mice; format: binding
# Procedure: as §1, with “strain. […]” for “strain.”
# In some instances day 0 OD values were high, thus making the differences appear small. Therefore, to account for such discrepancy, we also determined the ratio of the highest day (day 15 or 21) over day 0.
# [3] = test system: SFV-infected WT and γδ KO mice; assay: E2 137-151 peptide immunization during SFV disease: histopathology, remyelination in one micron brain sections; format: in vivo; settings: for Remyelination in KO mice: peptide-immunized SFV-infected γδ KO mice, day 28 pi
# Text: FIG. 4 Remyelination in E2 137-151 immunized, SFV-infected WT and γδ-KO B6 mice. All figures come from one micron epoxy sections taken from brain tissues, fixed in 2.5% glutaraldehyde/1% osmium tetroxide, embedded in epoxy resin, stained with toluidine blue and photographed by light microscopy.
# (§2) In order to be able to detect the de- and remyelination accurately, at the end of the experiment, mice will be sacrificed by an overdose of sodium pentobarbital and perfused by intracardiac puncture with Trumps fixative, containing 4% paraformaldehyde and 1% glutaraldehyde. Brains and spinal cords are removed and post fixed in osmium textroxide. Each brain is sectioned coronally into three pieces by cuts through infandibulum and optic chiasm. Spinal cord tissues will be also harvested and processed. Every third block (10-12 blocks per spinal cord, cervical to lumbar range) will be embedded, along with brain sections, in Araldite plastic. The embedded tissues will be cross-sectioned at 1 μm thickness, and the slides stained with toluidine blue or 4% paraphenylenediamine to highlight the myelin sheets. We have studied the one-micron thin sections of the brains of SFV-infected WT and KO on days of 21-42 postinfection.
# as §2, with “[…] These lesions were impossible to quantitate due to very small sizes of nerve fibers. Consequently we plan to study” for “The embedded tissues will be cross-sectioned at 1 μm thickness, and”, “cross” for “slides stained with toluidine blue or 4% paraphenylenediamine to highlight the myelin sheets. We have studied the one-micron thin”, “spinal cords to quantitate these lesins, as has been previously reported (71). […]” for “the brains of SFV-infected WT and KO on days of 21-42 postinfection.”
# B6 mice = settings: unpublished data
smiles,measurement,setting,value
CC[C@H](C)[C@H](NC(=O)[C@H](CCC(=O)O)NC(=O)[C@H](CCCCN)NC(=O)CNC(=O)[C@H](Cc1ccc(O)cc1)NC(=O)[C@H](Cc1c[nH]cn1)NC(=O)[C@@H]1CCCN1C(=O)[C@H](CCCNC(=N)N)NC(=O)[C@@H](NC(=O)[C@@H](NC(=O)[C@H](Cc1ccccc1)NC(=O)[C@H](CCCCN)NC(=O)[C@H](CCC(=O)O)NC(=O)[C@H](CCCNC(=N)N)NC(=O)CN)[C@@H](C)O)[C@@H](C)CC)C(=O)O [E2 137-151],"Normal Rabbit Serum, OD at 490 nm",Normal Rabbit Serum,0.173 OD
same,"Formation of anti-E2 137-151 antibody in SFV-infected, immunized WT mice","[1]; 0.5 mg/injection sc in IFA, WT mice",suppressed
same,"Ratio of antibody production to SFV, immunized versus non-immunized",[1]; KO and WT mice,did not increase
same,Antibody to E2 137-151 peptide after immunization,[1]; SFV-infected KO mice,increased the antibody to this peptide only
same,Ratio of KO/WT anti E2 137-151 antibody production,[1]; immunized versus non-immunized,significantly increased
same,Dh / D0 (Ratio),"[2]; OD of highest day (day 15 or 21) over day 0, SFV-infected sera",3.96
same,Dh−D0 (difference),"[2]; OD of highest day minus day 0, SFV-infected sera",0.406
same,"Net change in the levels of antibody (ΔOD), D7-9","[2]; SFV-infected mice sera, days 7-9 pi, day 0 OD subtracted",0.84 ± 0.39 ΔOD
same,"Net change in the levels of antibody (ΔOD), D14-16","[2]; SFV-infected mice sera, days 14-16 pi, day 0 OD subtracted",1.83 ± 0.47 ΔOD
same,"Net change in the levels of antibody (ΔOD), D21-23","[2]; SFV-infected mice sera, days 21-23 pi, day 0 OD subtracted",2.19 ± 0.76 ΔOD
same,"Net change in the levels of antibody (ΔOD), D31-35","[2]; SFV-infected mice sera, days 31-35 pi, day 0 OD subtracted",2.08 ± 0.67 ΔOD
same,Reactivity of sera from SFV-infected B6 mice with the antigen in ELISA,[2]; vs day 0,reacted
same,Remyelination in WT mice,[3]; peptide-immunized SFV-infected WT mice,normal remyelination
same,Remyelination in KO mice,[3],advanced remyelination
same,Remyelination in KO mice,[3]; listed as E2 137-151 peptide,early remyelination; also recorded: promoted remyelination
same,Histopathology after inoculation with the peptide,B6 mice,did not cause histopathology

# Reference: patent publication US20090311246A1, “Method of Enhancing Remyelination in Demyelinating Diseases of the Central Nervous System” (priority 2008, published 2009)
